Measurements as given in ChEMBL document CHEMBL3352745, “Serotonin 5-HT6 receptor antagonists for the treatment of cognitive deficiency in Alzheimer's disease” (J Med Chem, 2014).

Legend:
[1] = biological target: T1, 5-hydroxytryptamine receptor 6 (Homo sapiens, UniProt P50406); experiment: Antagonist activity at human recombinant 5HT6 receptor expressed in CHO cells; type: cell-based
[2] = Ratio of drug level in brain to plasma in rat; type: ADME; details: brain and plasma, read-out: BPR
[3] = biological target: T1, 5-hydroxytryptamine receptor 6; experiment: Inhibition of human recombinant 5HT6 receptor expressed in CHO cells; type: cell-based
[4] = Oral bioavailability in rat; type: ADME, organism-based; details: in vivo
[5] = Half life in rat; type: ADME, organism-based; details: in vivo

T1 sequence (P50406 whole entry): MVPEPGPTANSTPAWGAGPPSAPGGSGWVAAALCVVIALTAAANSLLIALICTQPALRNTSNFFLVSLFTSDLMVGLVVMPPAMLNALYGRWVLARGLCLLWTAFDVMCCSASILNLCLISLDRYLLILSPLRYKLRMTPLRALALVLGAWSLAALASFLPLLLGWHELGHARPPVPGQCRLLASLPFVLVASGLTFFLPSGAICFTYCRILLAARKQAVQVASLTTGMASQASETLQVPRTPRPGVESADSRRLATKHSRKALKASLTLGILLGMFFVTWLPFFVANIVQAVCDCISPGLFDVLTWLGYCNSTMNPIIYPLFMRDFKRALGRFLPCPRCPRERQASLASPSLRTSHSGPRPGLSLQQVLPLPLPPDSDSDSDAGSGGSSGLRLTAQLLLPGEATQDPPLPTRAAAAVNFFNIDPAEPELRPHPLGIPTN

CN1CC=C(c2cn(S(=O)(=O)c3cccc4ccccc34)c3ccc(F)cc23)CC1
Ki [1]: 1 nM | Kp [2]: 43 | IC50 [3]: 24 nM | bioavailability [4]: 19%

COc1ccc(NS(=O)(=O)c2ccc(I)cc2)cc1N1CCNCC1
Ki [1]: 2.3 nM

O=S(=O)(c1cccc(Cl)c1)n1ccc2c(N3CCNCC3)c(Cl)ccc21
Ki [1]: 0.3 nM

Nc1ccc(S(=O)(=O)c2cc(Br)nc(N3CCCC3)c2)cc1
IC50 [3]: 3.2 nM

COc1ccc(NS(=O)(=O)c2ccc(Br)cc2)cc1N1CCN(C)CC1
IC50 [3]: 16 nM

O=S(=O)(Nc1ccc2c(c1)CNCCC2)c1csc(C(F)(F)F)c1-c1ccccc1
Ki [1]: 32 nM

COc1ccc(Cl)cc1NS(=O)(=O)c1ccc(OC)c2c1CC[C@H](N(C)C)C2
Ki [1]: 1.7 nM

Fc1ccc2c(c1)c(C1=CCNCC1)cn2Cc1ccccc1
Ki [1]: 10 nM

O=C(c1ccccc1)n1cc(C2=CCNCC2)c2cc(F)ccc21
Ki [1]: 99 nM

O=C(Nc1ccccc1)n1cc(C2=CCNCC2)c2cc(F)ccc21
Ki [1]: 118 nM

CN1CCN(c2cccc3c(S(=O)(=O)c4ccccc4)c[nH]c23)CC1
Ki [1]: 0.5 nM

O=S(=O)(c1cccc(F)c1)c1c[nH]c2c(OCCN3CCCC3)cccc12
Ki [1]: 20 nM

CN1CCC(c2cn(C)c3cc(OS(=O)(=O)c4c(F)cccc4F)ccc23)CC1
Ki [1]: 1 nM

Cc1cc(C)cc(S(=O)(=O)c2ccc3ccnc(N4CCNCC4)c3c2)c1
Ki [1]: 11 nM

CSc1nn2c(N3CCNCC3)nc(C)nc2c1S(=O)(=O)c1ccccc1
Ki [1]: 1.2 nM

O=c1n(C2=CCNCC2)c2ccccc2n1S(=O)(=O)c1ccc2ccccc2c1
Ki [1]: 5.7 nM

O=S(=O)(c1cccc(Cl)c1Cl)N1CCc2c(cccc2N2CCNCC2)C1
Ki [1]: 0.04 nM

COc1ccc(C)cc1S(=O)(=O)Nc1cc(OC2CCNCC2)c2occc2c1
Ki [1]: 1.2 nM

O=S(=O)(c1ccccc1)c1ccc2c(c1)OCCC2N1CCNCC1 (stereo unspecified)
Ki [1]: 0.4 nM

CNC[C@@H]1COc2ccc(S(=O)(=O)c3ccccc3)cc2O1
Ki [1]: 0.2 nM

O=S(=O)(c1ccccc1)c1ccc(C2CCNCC2)c2ccccc12
Ki [1]: 3.8 nM

N=C(N)CCC1CCCc2cc(S(=O)(=O)c3ccccc3)ccc21 (stereo unspecified)
Ki [1]: 59 nM

CN1CCCC1Cc1c[nH]c2ccc(OC3CCCCC3)cc12 (stereo unspecified)
Ki [1]: 0.93 nM

COc1cc(N2CCNCC2)c2ncc(C)c(Oc3ccccc3)c2c1
Ki [1]: 1 nM

COc1cc(Cn2c(=O)ccc3cccc(OC)c32)cc(N2CCNCC2)c1
Ki [1]: 0.9 nM

O=C1COc2c(N3CCNCC3)cccc2N1Cc1ccccc1
Ki [1]: 0.2 nM

O=C1c2cccc(N3CCNCC3)c2Oc2ccc(F)cc2N1Cc1cccc(C(F)(F)F)c1
Ki [1]: 0.3 nM

O=c1[nH]c2c(N3CCNCC3)cccc2n1Cc1ccccc1
Ki [1]: 0.3 nM

Clc1ccc(-c2[nH]c3ccccc3c2/C=N/NC2=NCCN2)cc1
Ki [1]: 10 nM

CC(Nc1ccc2c(c1)CCNCC2)c1ccccc1Cl (stereo unspecified)
Ki [1]: 14 nM

Cc1c(S(=O)(=O)Nc2cc3c(c(N4CCN(C)CC4)c2)OCC3)sc2ccc(Cl)cc12
Ki [1]: 1.6 nM

CN1CCC[C@@H]1Cc1cn(S(=O)(=O)c2ccccc2)c2ccc(Cl)cc12
Kp [2]: 23 | IC50 [3]: 8.5 nM | bioavailability [4]: 17%

COc1ccc(NS(=O)(=O)c2sc3ccc(Cl)cc3c2C)cc1N1CCNCC1
half-life [5]: 4.8 h | bioavailability [4]: > 80%

CN1CC2c3ccccc3Oc3ccc(Cl)cc3C2C1 (stereo unspecified) [ASENAPINE]
Ki [1]: 0.25 nM

O=S(=O)(c1ccccc1)c1cnc2c(N3CCNCC3)cccc2c1 [INTEPIRDINE]
bioavailability [4]: 76%
